Laboratory results as given in ChEMBL document CHEMBL6177941, “Recent advances from computer-aided drug design to artificial intelligence drug design” (RSC Med Chem, 2024).
pEC50, pIC50, pKd, pKi: −log10 of the molar value. Converted amounts (≈) assume the structure as drawn.

How the values were obtained:
Acinetobacter baumannii = test: microbe, parasite or virus in culture; settings: ATCC 17978
Description: Antibacterial activity against Acinetobacter baumannii ATCC 17978

Escherichia coli = test: Antibacterial activity against Escherichia coli
[1] = Inhibition of Poly-L-Histidine tagged full length recombinant Trypanosoma cruzi Sir2p extracted from Escherichia coli BL21 (DE) using Abz-Gly-Pro-AcetylLys-Ser-Gln-EDDnp peptide as substrate incubated for 30 mins by fluorescence based analysis
Androgen receptor = target: T1, Androgen receptor (Homo sapiens, UniProt P10275); test: Inhibition of full length human Androgen receptor DNA binding domain dimerization
T1 sequence (P10275 whole entry): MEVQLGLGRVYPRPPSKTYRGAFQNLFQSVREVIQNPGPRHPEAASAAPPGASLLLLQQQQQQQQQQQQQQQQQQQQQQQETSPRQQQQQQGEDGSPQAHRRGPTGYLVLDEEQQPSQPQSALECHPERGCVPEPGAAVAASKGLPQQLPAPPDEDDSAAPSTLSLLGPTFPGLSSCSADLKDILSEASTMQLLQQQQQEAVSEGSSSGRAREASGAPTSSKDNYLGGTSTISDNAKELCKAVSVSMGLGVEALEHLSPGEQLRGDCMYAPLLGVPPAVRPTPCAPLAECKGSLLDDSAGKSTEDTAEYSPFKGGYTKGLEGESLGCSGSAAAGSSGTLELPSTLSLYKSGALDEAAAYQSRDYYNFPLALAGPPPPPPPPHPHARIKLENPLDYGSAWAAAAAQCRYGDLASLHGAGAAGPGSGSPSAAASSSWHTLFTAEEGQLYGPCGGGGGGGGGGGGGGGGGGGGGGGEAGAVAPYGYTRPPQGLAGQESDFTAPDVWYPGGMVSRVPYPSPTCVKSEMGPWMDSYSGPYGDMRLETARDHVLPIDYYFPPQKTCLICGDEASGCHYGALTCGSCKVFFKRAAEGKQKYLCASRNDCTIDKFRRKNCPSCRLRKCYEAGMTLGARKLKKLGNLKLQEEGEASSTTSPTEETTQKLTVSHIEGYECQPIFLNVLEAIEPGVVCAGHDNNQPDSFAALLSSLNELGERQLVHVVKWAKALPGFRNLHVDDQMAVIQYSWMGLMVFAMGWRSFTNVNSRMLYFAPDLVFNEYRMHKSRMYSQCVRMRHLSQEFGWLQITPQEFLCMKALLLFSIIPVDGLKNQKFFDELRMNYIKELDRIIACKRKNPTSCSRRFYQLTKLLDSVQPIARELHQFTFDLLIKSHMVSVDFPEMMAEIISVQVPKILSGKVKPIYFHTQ

[2] = target: T2, Serine/threonine-protein kinase Sgk3 (Homo sapiens, UniProt Q96BR1); test: Inhibition of SGK3 (unknown origin)
T2 sequence (Q96BR1 whole entry): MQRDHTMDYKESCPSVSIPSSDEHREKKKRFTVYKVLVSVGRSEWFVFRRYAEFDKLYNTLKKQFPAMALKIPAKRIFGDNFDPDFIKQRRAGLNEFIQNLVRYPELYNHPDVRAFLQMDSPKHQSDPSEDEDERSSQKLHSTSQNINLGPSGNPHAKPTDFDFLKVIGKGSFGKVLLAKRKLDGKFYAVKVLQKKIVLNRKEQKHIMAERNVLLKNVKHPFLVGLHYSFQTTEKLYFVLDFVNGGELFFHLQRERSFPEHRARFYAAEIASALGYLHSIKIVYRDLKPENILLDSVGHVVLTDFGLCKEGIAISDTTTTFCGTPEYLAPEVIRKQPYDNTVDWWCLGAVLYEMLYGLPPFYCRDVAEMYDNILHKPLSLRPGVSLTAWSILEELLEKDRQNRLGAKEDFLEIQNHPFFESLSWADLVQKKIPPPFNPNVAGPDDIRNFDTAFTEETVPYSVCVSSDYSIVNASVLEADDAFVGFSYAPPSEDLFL

[3] = target: 5-hydroxytryptamine receptor 2A (Homo sapiens, UniProt P28223); test: Agonist activity at human 5-HT2A receptor expressed in HEK293 cells incubated for 60 mins by BRET assay
5-hydroxytryptamine receptor 2A, sequence (P28223 whole entry): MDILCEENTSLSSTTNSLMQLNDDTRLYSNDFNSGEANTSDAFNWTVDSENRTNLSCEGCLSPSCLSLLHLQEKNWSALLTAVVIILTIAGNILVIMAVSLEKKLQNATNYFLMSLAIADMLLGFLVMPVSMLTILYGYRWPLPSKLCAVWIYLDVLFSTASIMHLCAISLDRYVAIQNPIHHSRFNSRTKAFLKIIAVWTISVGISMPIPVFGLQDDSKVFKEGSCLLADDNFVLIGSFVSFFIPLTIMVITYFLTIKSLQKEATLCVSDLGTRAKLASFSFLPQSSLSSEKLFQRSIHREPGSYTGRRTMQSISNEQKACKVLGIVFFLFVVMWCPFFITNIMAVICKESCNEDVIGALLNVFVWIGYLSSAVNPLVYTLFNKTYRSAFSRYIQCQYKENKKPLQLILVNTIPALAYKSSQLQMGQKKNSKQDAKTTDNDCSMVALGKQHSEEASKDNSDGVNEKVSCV

Speckle-type POZ protein = Speckle-type POZ protein (Homo sapiens, UniProt O43791)
Speckle-type POZ protein, sequence (O43791 whole entry, the tested form may be a part): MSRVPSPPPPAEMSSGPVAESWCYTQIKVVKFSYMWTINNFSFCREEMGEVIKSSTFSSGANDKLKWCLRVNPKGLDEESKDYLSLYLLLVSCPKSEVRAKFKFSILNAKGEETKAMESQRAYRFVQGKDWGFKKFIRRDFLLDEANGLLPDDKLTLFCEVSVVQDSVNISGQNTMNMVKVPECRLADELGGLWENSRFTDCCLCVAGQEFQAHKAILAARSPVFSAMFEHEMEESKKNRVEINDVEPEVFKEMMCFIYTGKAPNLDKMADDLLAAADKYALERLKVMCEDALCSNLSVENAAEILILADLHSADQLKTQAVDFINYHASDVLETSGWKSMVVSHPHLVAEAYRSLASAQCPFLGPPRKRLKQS

[4] = target: Myeloid differentiation primary response protein MyD88 (Homo sapiens, UniProt Q99836); test: Binding affinity to MYD88 Toll/interleukin-1 receptor domain (unknown origin) assessed as dissociation constant by SPR assay
Myeloid differentiation primary response protein MyD88, sequence (Q99836 whole entry, the tested form may be a part): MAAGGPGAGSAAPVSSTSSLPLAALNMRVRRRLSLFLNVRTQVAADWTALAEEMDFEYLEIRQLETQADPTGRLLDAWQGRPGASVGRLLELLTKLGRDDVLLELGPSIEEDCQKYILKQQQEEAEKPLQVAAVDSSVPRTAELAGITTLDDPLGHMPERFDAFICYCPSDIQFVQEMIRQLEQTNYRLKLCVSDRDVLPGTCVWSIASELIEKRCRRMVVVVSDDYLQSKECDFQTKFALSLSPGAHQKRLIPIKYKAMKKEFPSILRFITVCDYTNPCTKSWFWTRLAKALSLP

Staphylococcus aureus [5] = test: microbe, parasite or virus in culture; settings: ATCC 43300, 24 h
Description: Antibacterial activity against methicillin-resistant Staphylococcus aureus ATCC 43300 assessed as reduction in bacterial growth incubated for 24 hrs by CLSI protocol based broth micro-dilution method

Staphylococcus aureus [6] = test: microbe, parasite or virus in culture; settings: ATCC 35556, 24 h
Description: Antibacterial activity against wild type Staphylococcus aureus ATCC 35556 assessed as reduction in bacterial growth incubated for 24 hrs by CLSI protocol based broth micro-dilution method

[7] = target: Tyrosine-protein kinase JAK2 (Homo sapiens, UniProt O60674); test: Inhibition of JAK2 (unknown origin) by Z'-LYTE kinase assay
Tyrosine-protein kinase JAK2, sequence (O60674 whole entry): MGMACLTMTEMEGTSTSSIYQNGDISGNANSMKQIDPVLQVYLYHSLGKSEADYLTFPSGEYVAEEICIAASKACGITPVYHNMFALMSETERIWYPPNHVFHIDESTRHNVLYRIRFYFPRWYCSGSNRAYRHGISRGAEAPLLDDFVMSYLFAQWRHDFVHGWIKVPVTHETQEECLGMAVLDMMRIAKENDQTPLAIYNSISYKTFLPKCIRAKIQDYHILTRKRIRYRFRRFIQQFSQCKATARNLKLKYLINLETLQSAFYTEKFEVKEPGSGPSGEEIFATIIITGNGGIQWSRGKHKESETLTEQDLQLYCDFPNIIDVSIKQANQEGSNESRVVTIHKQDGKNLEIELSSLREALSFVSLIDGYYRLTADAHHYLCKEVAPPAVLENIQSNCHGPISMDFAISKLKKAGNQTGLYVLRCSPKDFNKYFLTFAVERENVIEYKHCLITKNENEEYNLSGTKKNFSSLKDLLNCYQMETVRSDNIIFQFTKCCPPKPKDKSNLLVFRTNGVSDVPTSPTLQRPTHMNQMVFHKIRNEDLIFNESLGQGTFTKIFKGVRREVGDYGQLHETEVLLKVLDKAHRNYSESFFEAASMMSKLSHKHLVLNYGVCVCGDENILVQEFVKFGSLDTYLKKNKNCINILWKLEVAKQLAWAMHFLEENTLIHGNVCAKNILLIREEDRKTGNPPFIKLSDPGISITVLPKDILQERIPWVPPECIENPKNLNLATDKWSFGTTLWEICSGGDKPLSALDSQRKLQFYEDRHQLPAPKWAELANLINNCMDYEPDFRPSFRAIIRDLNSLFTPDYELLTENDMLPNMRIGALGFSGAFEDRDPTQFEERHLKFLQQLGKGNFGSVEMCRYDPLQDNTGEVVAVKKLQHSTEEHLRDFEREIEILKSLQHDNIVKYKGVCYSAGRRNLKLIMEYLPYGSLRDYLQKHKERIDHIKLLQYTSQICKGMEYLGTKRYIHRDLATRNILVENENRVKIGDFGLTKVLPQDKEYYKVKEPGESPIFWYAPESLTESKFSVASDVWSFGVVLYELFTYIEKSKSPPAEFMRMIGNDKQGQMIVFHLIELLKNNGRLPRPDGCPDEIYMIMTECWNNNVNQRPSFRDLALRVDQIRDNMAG

[8] = target: Rho-associated protein kinase 1 (Homo sapiens, UniProt Q13464)
Rho-associated protein kinase 1, sequence (Q13464 whole entry, the tested form may be a part): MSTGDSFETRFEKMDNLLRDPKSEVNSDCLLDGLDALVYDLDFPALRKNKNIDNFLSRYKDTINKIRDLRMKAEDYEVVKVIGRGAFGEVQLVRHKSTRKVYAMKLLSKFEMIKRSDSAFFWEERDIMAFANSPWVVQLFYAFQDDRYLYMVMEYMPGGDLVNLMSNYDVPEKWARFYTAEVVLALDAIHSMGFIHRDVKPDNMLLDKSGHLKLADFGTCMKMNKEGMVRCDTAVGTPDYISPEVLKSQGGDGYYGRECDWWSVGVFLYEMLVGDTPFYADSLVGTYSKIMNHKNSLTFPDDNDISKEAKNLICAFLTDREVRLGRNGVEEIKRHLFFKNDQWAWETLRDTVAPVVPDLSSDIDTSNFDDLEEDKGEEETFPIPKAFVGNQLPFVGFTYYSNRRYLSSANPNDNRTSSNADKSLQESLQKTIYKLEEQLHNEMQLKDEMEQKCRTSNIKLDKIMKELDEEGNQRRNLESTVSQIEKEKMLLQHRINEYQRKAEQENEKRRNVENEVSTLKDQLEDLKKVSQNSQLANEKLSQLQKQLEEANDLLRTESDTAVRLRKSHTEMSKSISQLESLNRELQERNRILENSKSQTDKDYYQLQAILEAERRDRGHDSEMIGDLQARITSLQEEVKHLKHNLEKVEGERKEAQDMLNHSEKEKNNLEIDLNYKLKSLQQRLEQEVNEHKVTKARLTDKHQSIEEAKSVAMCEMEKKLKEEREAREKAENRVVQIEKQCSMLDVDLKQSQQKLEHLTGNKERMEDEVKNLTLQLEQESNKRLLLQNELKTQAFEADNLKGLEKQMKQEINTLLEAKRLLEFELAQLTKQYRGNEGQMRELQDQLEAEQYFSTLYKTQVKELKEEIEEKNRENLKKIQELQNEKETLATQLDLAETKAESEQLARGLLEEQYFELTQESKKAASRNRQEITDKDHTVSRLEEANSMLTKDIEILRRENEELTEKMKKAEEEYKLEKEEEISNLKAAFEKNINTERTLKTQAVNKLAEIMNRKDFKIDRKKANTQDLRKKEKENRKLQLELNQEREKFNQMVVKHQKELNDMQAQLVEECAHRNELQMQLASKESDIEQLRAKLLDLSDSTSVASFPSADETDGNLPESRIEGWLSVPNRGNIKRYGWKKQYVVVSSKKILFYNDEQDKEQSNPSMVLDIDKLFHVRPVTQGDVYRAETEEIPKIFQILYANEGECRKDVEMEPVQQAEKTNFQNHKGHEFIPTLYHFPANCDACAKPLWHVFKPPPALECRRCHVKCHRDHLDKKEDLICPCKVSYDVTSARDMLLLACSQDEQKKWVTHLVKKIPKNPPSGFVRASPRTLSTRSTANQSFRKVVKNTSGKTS
Description: Binding affinity to N-terminal GST-tagged human ROCK1 catalytic domain (1 to 477 residues) expressed in Sf21 insect cells assessed as inhibition constant by NanoBRET intracellular kinase assay

[9] = target: Epithelial discoidin domain-containing receptor 1 (Homo sapiens, UniProt Q08345)
Epithelial discoidin domain-containing receptor 1, sequence (Q08345 whole entry, the tested form may be a part): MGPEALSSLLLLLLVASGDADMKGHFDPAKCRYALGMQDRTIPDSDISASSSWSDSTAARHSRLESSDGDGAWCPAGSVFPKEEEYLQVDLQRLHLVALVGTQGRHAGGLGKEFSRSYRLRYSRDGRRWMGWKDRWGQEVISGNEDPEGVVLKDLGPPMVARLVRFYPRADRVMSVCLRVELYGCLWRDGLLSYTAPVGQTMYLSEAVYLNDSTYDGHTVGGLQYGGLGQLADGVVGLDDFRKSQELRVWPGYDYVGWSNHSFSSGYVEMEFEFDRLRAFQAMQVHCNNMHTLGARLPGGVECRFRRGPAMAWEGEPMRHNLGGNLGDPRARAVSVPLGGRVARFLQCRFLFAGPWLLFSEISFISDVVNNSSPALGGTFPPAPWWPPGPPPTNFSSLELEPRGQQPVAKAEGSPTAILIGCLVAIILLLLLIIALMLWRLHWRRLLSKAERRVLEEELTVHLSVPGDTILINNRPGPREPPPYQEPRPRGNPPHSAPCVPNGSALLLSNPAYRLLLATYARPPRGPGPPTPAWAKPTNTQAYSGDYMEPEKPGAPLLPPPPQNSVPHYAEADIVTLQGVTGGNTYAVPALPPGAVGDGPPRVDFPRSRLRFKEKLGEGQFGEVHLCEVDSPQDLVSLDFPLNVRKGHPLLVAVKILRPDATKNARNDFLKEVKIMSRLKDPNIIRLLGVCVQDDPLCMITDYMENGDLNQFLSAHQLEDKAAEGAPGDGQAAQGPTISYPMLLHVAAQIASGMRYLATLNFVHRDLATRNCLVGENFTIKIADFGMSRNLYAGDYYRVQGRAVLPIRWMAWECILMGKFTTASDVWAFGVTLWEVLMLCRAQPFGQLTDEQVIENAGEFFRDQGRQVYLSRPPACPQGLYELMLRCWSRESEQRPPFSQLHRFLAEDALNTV

MOLT-4 = test: Antiproliferative activity against human MOLT-4 cells assessed as reduction in cell growth incubated for 72 hrs by Cell-titer glo luminescent cell viability assay; settings: MOLT-4, 72 h
Cannabinoid receptor 2 = Cannabinoid receptor 2 (Homo sapiens, UniProt P34972); test: Binding affinity to human CB2 receptor assessed as inhibition constant
Cannabinoid receptor 2, sequence (P34972 whole entry): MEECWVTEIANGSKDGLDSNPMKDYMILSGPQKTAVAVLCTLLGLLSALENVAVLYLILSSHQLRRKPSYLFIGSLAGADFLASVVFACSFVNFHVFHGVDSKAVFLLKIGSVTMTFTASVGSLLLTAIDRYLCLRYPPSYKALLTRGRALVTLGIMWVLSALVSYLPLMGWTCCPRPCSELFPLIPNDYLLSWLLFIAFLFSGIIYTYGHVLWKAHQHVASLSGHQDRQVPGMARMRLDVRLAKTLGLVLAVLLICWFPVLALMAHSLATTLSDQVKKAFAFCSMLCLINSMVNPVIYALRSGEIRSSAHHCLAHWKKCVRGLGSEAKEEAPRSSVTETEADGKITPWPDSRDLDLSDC

VCaP = test: Antiproliferative activity against human VCaP cells expressing ERG level assessed as reduction in cell viability incubated for 72 hrs by CCK8 assay

For `O=C1Nc2ccccc2C2(CCN(CCc3ccc(C(F)(F)F)cc3)CC2)O1`, the MIC (Acinetobacter baumannii) was 2 µg/mL (≈ 5.12 µM).
For `Nc1nnc(Sc2ncc([N+](=O)[O-])s2)s1`, the MIC (Escherichia coli) was 2 µg/mL (≈ 7.65 µM).
Work on `O=C(NCc1coc(-c2ccccc2)n1)Nc1ccc(-c2noc(C(F)(F)F)n2)cc1` yielded a pIC50 [1] of 4.40.
`CC(O)(CNC(=O)/C=C/c1ccnc2ccccc12)c1ccsc1` (configuration not stated) gave a pIC50 (Androgen receptor) of 5.30.
For `COc1ccc(/C=C/c2[nH]c(=O)[nH]c(=O)c2[N+](=O)[O-])cc1OC`, the pIC50 [2] was 3.75.
Work on `C[C@@H]1C=C(c2c[nH]c3ncccc23)CN(C)C1` yielded a pEC50 [3] of 6.96.
With `Cc1nnc(SCC2=C(C(=O)O)N3C(=O)[C@@H](NC(=O)c4ccc(COc5ccccc5Cl)o4)[C@H]3SC2)s1` the pIC50 (Speckle-type POZ protein) was 5.35.
Molecule `O=C(NCc1cccc2ccccc12)NCC(O)(c1cccs1)c1cccs1` has a pIC50 (Androgen receptor) of 5.70.
In the case of `O=C(CN1CCC(CCc2ccccc2)CC1)Nc1n[nH]c2ncccc12`, the pKd [4] was 3.78.
In the case of `CC1(C)[C@H]2Cc3cc(-c4cc5c(cn4)[C@@H]4C[C@H](C5)C4(C)C)ncc3[C@@H]1C2`, the MIC (Staphylococcus aureus [5]) was 8 µg/mL (≈ 23.2 µM) and the MIC (Staphylococcus aureus [6]) was 8 µg/mL (≈ 23.2 µM).
`COCc1cccc(CC(=O)Nc2ccc(-c3cn[nH]c3)cc2)c1` showed a pIC50 [7] of 7.15, a pKi [8] of 7.42 and a pIC50 [9] of 8.00. For the same molecule, the pIC50 (MOLT-4) was 6.94.
Work on `COCC(C)(NC(=O)c1ccc(N2CCCCC2)c(S(=O)(=O)N2CCCCC2)c1)C1CC1` (configuration not stated) yielded a pKi (Cannabinoid receptor 2) of 9.05.
Work on `O=C(N/N=C/c1ccc([N+](=O)[O-])o1)c1ccc(O)cc1` [NIFUROXAZIDE] yielded a pIC50 (VCaP) of 5.59.
